Test results taken from patent US6506772B1, “Substituted [1,2,4]triazolo[1,5a]pyridine derivatives with activity as adenosine receptor ligands” (Hoffmann-La Roche Inc., priority 2000, dated 2003).
Like-named read-outs stand apart in the source and are kept apart here.

Legend:
[1] = molecular target: T1, HA1 adenosine receptor (Homo sapiens, UniProt P30542); test: Human adenosine A1 receptor affinity (Ki hA1); type: binding
T1 sequence (P30542 1-326): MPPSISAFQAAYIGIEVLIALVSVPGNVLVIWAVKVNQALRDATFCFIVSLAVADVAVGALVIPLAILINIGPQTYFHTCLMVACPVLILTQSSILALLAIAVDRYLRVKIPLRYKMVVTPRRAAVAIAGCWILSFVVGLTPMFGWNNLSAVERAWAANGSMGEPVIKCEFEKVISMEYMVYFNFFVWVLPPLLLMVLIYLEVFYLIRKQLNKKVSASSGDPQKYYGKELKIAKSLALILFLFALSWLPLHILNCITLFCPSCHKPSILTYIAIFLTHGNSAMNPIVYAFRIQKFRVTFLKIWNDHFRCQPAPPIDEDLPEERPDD

[2] = molecular target: T2, human adenosine A2A receptor (Homo sapiens, UniProt P29274); test: Human adenosine A2A receptor [3H]-SCH-58261 binding assay; conditions: for selectivity (A1/A2a): ratio KiHA1 divided by KiHA2A
T2 construct: expressed in transfected cells; host or cells: CHO cells, Semliki Forest virus expression system; membrane preparation
Procedure: Human Adenosine A2A Receptor
The human adenosine A2A receptor was recombinantly expressed in chinese hamster ovary (CHO) cells using the semliki forest virus expression system. Cells were harvested, washed twice by centrifugation, homogenized and again washed by centrifugation. The final washed membrane pellet was suspended in a Tris (50 mM) buffer containing 120 mM NaCl, 5 mM KCl, 2 mM CaCl2 and 10 MM MgCl2 (pH 7.4) (buffer A). […] Compounds were tested at 10 concentrations from 10 μM-0.3 nM. All assays were conducted in duplicate and repeated at least two times. Assay plates were incubated for 1 hour at room temperature before centrifugation and then bound ligand determined using a Packard Topcount scintillation counter. IC50 values were calculated using a non-linear curve fitting program and Ki values calculated using the Cheng-Prussoff equation.

[3] = affinity to human adenosine A1 receptor
[4] = recombinant human A2A in CHO cell membranes, [3H]-SCH-58261, Cheng-Prussoff, read-out: Ki hA2A
[5] = affinity to human adenosine A2A receptor, read-out: Ki HA2A

T2 sequence (P29274 whole entry): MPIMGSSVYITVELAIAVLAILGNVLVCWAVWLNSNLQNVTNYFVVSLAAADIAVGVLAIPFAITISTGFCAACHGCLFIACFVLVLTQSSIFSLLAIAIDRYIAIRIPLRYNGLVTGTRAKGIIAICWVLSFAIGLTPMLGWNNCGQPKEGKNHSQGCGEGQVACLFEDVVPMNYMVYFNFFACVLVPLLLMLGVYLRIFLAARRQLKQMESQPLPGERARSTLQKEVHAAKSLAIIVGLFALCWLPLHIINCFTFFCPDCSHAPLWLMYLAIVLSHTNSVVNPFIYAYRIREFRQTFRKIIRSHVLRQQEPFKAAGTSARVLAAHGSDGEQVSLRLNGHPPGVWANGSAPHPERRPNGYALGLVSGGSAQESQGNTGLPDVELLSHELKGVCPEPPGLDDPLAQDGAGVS

| Ki [2, 5] | Structure (SMILES) | other results |
| --- | --- | --- |
| – | CC1CCCN(C(=O)c2cc(N)n3nc(-c4ccc(Br)o4)nc3c2)C1 (stereo not shown) [Example 295, [5-Amino-2-(5-bromo-furan-2-yl)-[1,2,4]triazolo[1,5-a]pyridin-7-yl]-(3,-methyl-piperidin-1-yl)-methanone] | Ki [1, 3]: 0.13 µM |
| – | CCCN(C)C(=O)c1cc(N)n2nc(-c3ccc(Br)o3)nc2c1 [Example 268, 5-Amino-2-(5-bromo-furan-2-yl)-[1,2,4]triazolo[1,5-a]pyridine-7-carboxylic acid methyl-propyl-amide] | Ki [1, 3]: 0.275 µM |
| – | CCN(CC)C(=O)C1CCCN(C(=O)c2cc(N)n3nc(-c4ccccn4)nc3c2)C1 (stereo not shown) [Example 434, 1-(5-Amino-2-pyridin-2-yl-[1,2,4]triazolo[1,5-a]pyridine-7-carbonyl)-piperidine-3-carboxylic acid diethylamide] | selectivity (A1/A2a) [2]: 52.6; Ki [2, 4]: 0.118 µM |
| – | CCN(CC)C(=O)C1CCCN(C(=O)c2cc(N)n3nc(-c4ccc(Br)o4)nc3c2)C1 (stereo not shown) [Example 356, 1-[5-Amino-2-(5-bromo-furan-2-yl)-[1,2,4]triazolo[1,5-a]pyridin-7-carbonyl]-piperidine-3-carboxylic acid diethylamide] | Ki [1, 3]: 1.06 µM |
| – | COC[C@@H]1CCCN1C(=O)c1cc(N)n2nc(-c3ccc(Br)o3)nc2c1 [Example 385, [5-Amino-2-(5-bromo-furan-2-yl)-[1,2,4]triazolo[1,5-a]pyridin-7-yl]-(S-2-methoxymethyl-pyrrolidin-1-yl)-methanone] | Ki [1]: 0.616 µM |
| – | Nc1cc(C(=O)N2CCCC2)cc2nc(-c3cccs3)nn12 [Example 128, (5-Amino-2-thiophen-2-yl-[1,2,4]triazolo[1,5-a]pyridin-7-yl)-pyrrolidin-1-yl-methanone] | Ki [1, 3]: 1.48 µM |
| 0.339 µM | COc1ccc(-c2nc3cc(C(=O)N4CCCC4)cc(N)n3n2)s1 [Example 69, [5-Amino-2-(5-methoxy-thiophen-2-yl)-[1,2,4]triazolo[1,5-a]pyridin-7-yl]-pyrrolidin-1-yl-methanone] | – |
| – | Nc1cc(C(=O)N2CCCC2)cc2nc(-c3ccccn3)nn12 [Example 410, (5-Amino-2-pyridin-2-yl-[1,2,4]triazolo[1,5-a]pyridin-7-yl)-pyrrolidin-1-yl-methanone] | Ki [1]: 1.45 µM |
| 0.365 µM | COc1ccc(CNC(=O)c2cc(N)n3nc(-c4ccc(Br)o4)nc3c2)cc1 [Example 231, 5-Amino-2-(5-bromo-furan-2-yl)-[1,2,4]triazolo[1,5-a]pyridine-7-carboxylic acid 4-methoxy-benzylamide] | – |
| 0.384 µM | COc1ccc(CNC(=O)c2cc(N)n3nc(-c4cccs4)nc3c2)cc1 [Example 229, 5-Amino-2-thiophen-2-yl-[1,2,4]triazolo[1,5-a]pyridine-7-carboxylic acid 4-methoxy-benzylamide] | – |
| 0.26 µM | COc1ccc(-c2nc3cc(C(=O)NC4CC4)cc(N)n3n2)s1 [Example 72, 5-Amino-2-(5-methoxy-thiophen-2-yl)-[1,2,4]triazolo[1,5-a]pyridine-7-carboxylic acid cyclopropylamide] | – |
| 0.293 µM | Nc1cc(C(=O)NCc2ccccc2Br)cc2nc(-c3ccc[nH]3)nn12 [Example 92, 5-Amino-2-(1H-pyrrol-2-yl)-[1,2,4]triazolo[1,5-a]pyridine-7-carboxylic acid 2-bromo-benzylamide] | – |
| 0.315 µM | COc1ccc(-c2nc3cc(C(=O)NCCc4ccccc4OC)cc(N)n3n2)s1 [Example 54, 5-Amino-2-(5-methoxy-thiophen-2-yl)-[1,2,4]triazolo[1,5-a]pyridine-7-carboxylic acid [2-(2-methoxy-phenyl)-ethyl]-amide] | – |
| 0.392 µM | COc1ccc(-c2nc3cc(C(=O)NC(C)c4ccccc4)cc(N)n3n2)s1 (stereo not shown) [Example 60, 5-Amino-2-(5-methoxy-thiophen-2-yl)-[1,2,4]triazolo[1,5-a]pyridine-7-carboxylic acid (1-phenyl-ethyl)-amide] | – |
| 0.295 µM | CN(CCc1ccccn1)C(=O)c1cc(N)n2nc(-c3nccs3)nc2c1 [Example 324, 5-Amino-2-thiazol-2-yl-[1,2,4]triazolo[1,5-a]pyridine-7-carboxylic acid methyl-(2-pyridin-2-yl-ethyl)-amide] | – |
| 0.332 µM | Nc1cc(C(=O)N2CCSCC2)cc2nc(-c3nccs3)nn12 [Example 318, (5-Amino-2-thiazol-2-yl-[1,2,4]triazolo[1,5-a]pyridin-7-yl)-thiomorpholin-4-yl-methanone] | – |

| Ki [2, 5] | Structure (SMILES) | other results |
| --- | --- | --- |
| 0.341 µM | COc1ccc(CNC(=O)c2cc(N)n3nc(-c4ccccn4)nc3c2)cc1 [Example 42, 5-Amino-2-pyridin-2-yl-[1,2,4]triazolo[1,5-a]pyridine-7-carboxylic acid 4-methoxy-benzylamide] | – |
| 0.392 µM | Nc1cc(C(=O)NC2CCC2)cc2nc(-c3ccc[nH]3)nn12 [Example 95, 5-Amino-2-(1H-pyrrol-2-yl)-[1,2,4]triazolo[1,5-a]pyridine-7-carboxylic acid cyclobutylamide] | – |
| 0.333 µM | COc1ccc(-c2nc3cc(C(=O)NCc4cccnc4)cc(N)n3n2)s1 [Example 61, 5-Amino-2-(5-methoxy-thiophen-2-yl)-[1,2,4]triazolo[1,5-a]pyridine-7-carboxylic acid (pyridin-3-ylmethyl)-amide] | – |
| 0.367 µM | COc1ccc(-c2nc3cc(C(=O)NC4CCCCCC4)cc(N)n3n2)s1 [Example 74, 5-Amino-2-(5-methoxy-thiophen-2-yl)-[1,2,4]triazolo[1,5-a]pyridine-7-carboxylic acid cycloheptylamide] | – |
| 0.395 µM | CCN(Cc1ccccc1)C(=O)c1cc(N)n2nc(-c3ccc[nH]3)nc2c1 [Example 94, 5-Amino-2-(1H-pyrrol-2-yl)-[1,2,4]triazolo[1,5-a]pyridine-7-carboxylic acid benzyl-ethyl-amide] | – |
| – | CN(C)C(=O)CN(C)C(=O)c1cc(N)n2nc(-c3ccccn3)nc2c1 [Example 428, 5-Amino-2-pyridin-2-yl-[1,2,4]triazolo[1,5-a]pyridine-7-carboxylic acid dimethylcarbamoylmethyl-methyl-amide] | selectivity (A1/A2a) [2]: 53.1; Ki [2, 4]: 0.117 µM |
| 0.327 µM | COc1ccc(-c2nc3cc(C(=O)N(CCN(C)C)Cc4ccccc4)cc(N)n3n2)s1 [Example 53, 5-Amino-2-(5-methoxy-thiophen-2-yl)-[1,2,4]triazolo[1,5-a]pyridine-7-carboxylic acid benzyl-(2-dimethylamino-ethyl)-amide] | – |
| – | CN(C)C(=O)[C@@H]1CCCN1C(=O)c1cc(N)n2nc(-c3nccs3)nc2c1 [Example 402, 1-(5-Amino-2-thiazol-2-yl-[1,2,4]triazolo[1,5-a]pyridine-7-carbonyl)-pyrrolidine-2-carboxylic acid dimethylamide] | selectivity (A1/A2a) [2]: 21.2; Ki [2, 4]: 0.293 µM |
| 0.373 µM | Nc1cc(C(=O)N2CC=C(c3ccccc3)CC2)cc2nc(-c3nccs3)nn12 [Example 326, (5-Amino-2-thiazol-2-yl-[1,2,4]triazolo[1,5-a]pyridin-7-yl)-(4-phenyl-3,6-dihydro-2H-pyridin-1-yl)-methanone] | – |
| 0.337 µM | COc1ccc(-c2nc3cc(C(=O)NCCc4ccccc4F)cc(N)n3n2)s1 [Example 57, 5-Amino-2-(5-methoxy-thiophen-2-yl)-[1,2,4]triazolo[1,5-a]pyridine-7-carboxylic acid [2-(2-fluoro-phenyl)-ethyl]-amide] | – |
| 0.0285 µM | CCN(Cc1ccccc1F)C(=O)c1cc(N)n2nc(-c3ccc(OC)s3)nc2c1 [Example 76, 5-Amino-2-(5-methoxy-thiophen-2-yl)-[1,2,4]triazolo[1,5-a]pyridine-7-carboxylic acid ethyl-(2-fluoro-benzyl)-amide] | – |
| 0.319 µM | COCCN(CCOC)C(=O)c1cc(N)n2nc(-c3nccs3)nc2c1 [Example 321, 5-Amino-2-thiazol-2-yl-[1,2,4]triazolo[1,5-a]pyridine-7-carboxylic acid bis-(2-methoxy-ethyl)-amide] | – |
| 0.329 µM | Nc1cc(C(=O)NCc2ccc(Cl)cc2)cc2nc(-c3ccoc3)nn12 [Example 230, 5-Amino-2-furan-3-yl-[1,2,4]triazolo[1,5-a]pyridine-7-carboxylic acid 4-chloro-benzylamide] | – |
| – | CN(C)C(=O)CN(C)C(=O)c1cc(N)n2nc(-c3nccs3)nc2c1 [Example 399, 5-Amino-2-thiazol-2-yl-[1,2,4]triazolo[1,5-a]pyridine-7-carboxylic acid dimethylcarbamoylmethyl-methyl-amide] | selectivity (A1/A2a) [2]: 61.4; Ki [2, 4]: 0.101 µM |
| – | CC(=O)N(C)C1CCN(C(=O)c2cc(N)n3nc(-c4nccs4)nc3c2)C1 (stereo not shown) [Example 403, N-[1-(5-Amino-2-thiazol-2-yl-[1,2,4]triazolo[1,5-a]pyridine-7-carbonyl)-pyrrolidin-3-yl]-N-methyl-acetamide] | selectivity (A1/A2a) [2]: 15.6; Ki [2, 4]: 0.398 µM |
| 0.375 µM | Cc1ccsc1-c1nc2cc(C(=O)NC3CCCCC3)cc(N)n2n1 [Example 37, 5-Amino-2-(3-methyl-thiophen-2-yl)-[1,2,4]triazolo[1,5-a]pyridine-7-carboxylic acid cyclohexylamide] | – |
